# Measured values from patent US11331299B2, “Medicinal use of serrulatane diterpenes” (The University of Sydney, priority 2016, dated 2022).
# Read-outs that look alike come from different tables or passages of the source.
# Tested on: 280 human cancer cell lines
# Test: OncoPanel cell proliferation assay (10-day)
# Assay type: cell-based
# Conditions: Homo sapiens; for IC50: read-out: Cell Count IC50; for EC50: read-out: Cell Count EC50; for GI50: read-out: Cell Count GI50
# [1] = SJRH30, SJRH30, Soft Tissue - Sarcoma
# [2] = SJSA-1, SJSA1, Soft Tissue - Osteosarcoma
# [3] = SK-LMS-1, SK-LMS-1, Soft Tissue - Sarcoma
# [4] = SK-MEL3, SK-MEL-3, Skin (Melanoma)
# [5] = SK-MEL-1, SK-MEL-1, Skin (Melanoma)
# [6] = SK-MEL-28, SK-MEL-28, Skin (Melanoma)
# [7] = SK-OV-3, SKOV3, Female GU - Ovary
# [8] = SK-UT-1, SK-UT-1, Soft Tissue - Sarcoma
# [9] = SW579, SW579, Endocrine - Thyroid
# [10] = SW684, SW684, Soft Tissue - Sarcoma
compound,measurement,setting,value
"CC(C)=CCC[C@@H]1C(O)Oc2c(C)cc(O)c3c2[C@H]1CC[C@H]3C (some centres unmarked) [Compound 2, 5,18-epoxyserrulat-14-en-8,18-diol]",IC50,"SCaBER, Bladder",11.5 µM
same,EC50,"SH-4, Skin (Melanoma)",9.6 µM
same,GI50,"SH-4, Skin (Melanoma)",11.8 µM
same,IC50,"SH-4, Skin (Melanoma)",11.9 µM
same,EC50,"SHP77, SHP-77, Lung - SCLC",8.01 µM
same,GI50,"SHP77, SHP-77, Lung - SCLC",7.9 µM
same,IC50,"SHP77, SHP-77, Lung - SCLC",8.01 µM
same,EC50,[1],5.09 µM
same,GI50,[1],5.07 µM
same,IC50,[1],5.1 µM
same,EC50,[2],7.11 µM
same,GI50,[2],7.02 µM
same,IC50,[2],7.11 µM
same,EC50,"SK-BR-3, SK-BR-3, Breast",12.2 µM
same,GI50,"SK-BR-3, SK-BR-3, Breast",11.9 µM
same,IC50,"SK-BR-3, SK-BR-3, Breast",12.2 µM
same,EC50,[3],6.79 µM
same,GI50,[3],11.2 µM
same,IC50,[3],11.3 µM
same,EC50,[4],22 µM
same,GI50,[4],20.8 µM
same,EC50,[5],15.7 µM
same,GI50,[5],14.7 µM
same,IC50,[5],15.7 µM
same,EC50,[6],9.46 µM
same,GI50,[6],9.85 µM
same,IC50,[6],9.89 µM
same,EC50,"SK-MES-1, SKMES1, Lung - NSCLC",7.8 µM
same,GI50,"SK-MES-1, SKMES1, Lung - NSCLC",7.67 µM
same,IC50,"SK-MES-1, SKMES1, Lung - NSCLC",7.8 µM
same,EC50,"SK-N-AS, CNS - Neuroblastoma",6.23 µM
same,GI50,"SK-N-AS, CNS - Neuroblastoma",7.7 µM
same,IC50,"SK-N-AS, CNS - Neuroblastoma",7.92 µM
same,EC50,"SK-N-DZ, CNS - Neuroblastoma",> 30 µM
same,GI50,"SK-N-DZ, CNS - Neuroblastoma",> 30 µM
same,IC50,"SK-N-DZ, CNS - Neuroblastoma",> 30 µM
same,EC50,"SK-N-FI, CNS - Neuroblastoma",> 30 µM
same,GI50,"SK-N-FI, CNS - Neuroblastoma",> 30 µM
same,IC50,"SK-N-FI, CNS - Neuroblastoma",> 30 µM
same,EC50,[7],15.4 µM
same,GI50,[7],15.2 µM
same,IC50,[7],15.4 µM
same,EC50,"SK-PN-DW, Stomach",10.8 µM
same,GI50,"SK-PN-DW, Stomach",10.9 µM
same,IC50,"SK-PN-DW, Stomach",10.9 µM
same,EC50,[8],11.7 µM
same,GI50,[8],11.6 µM
same,IC50,[8],11.7 µM
same,EC50,"SKO-007, SKO-007, Myeloma",1.59 µM
same,GI50,"SKO-007, SKO-007, Myeloma",1.42 µM
same,IC50,"SKO-007, SKO-007, Myeloma",1.59 µM
same,EC50,"SNB-19, SNB-19, CNS - Glioma",17.3 µM
same,GI50,"SNB-19, SNB-19, CNS - Glioma",16.8 µM
same,IC50,"SNB-19, SNB-19, CNS - Glioma",17.3 µM
same,EC50,"SNU1, SNU-1, Stomach",8.51 µM
same,GI50,"SNU1, SNU-1, Stomach",9.41 µM
same,IC50,"SNU1, SNU-1, Stomach",9.42 µM
same,EC50,"SNU-5, SNU-5, Stomach",> 30 µM
same,GI50,"SNU-5, SNU-5, Stomach",> 30 µM
same,IC50,"SNU-5, SNU-5, Stomach",> 30 µM
same,EC50,"SNU-16, SNU-16, Stomach",9.96 µM
same,GI50,"SNU-16, SNU-16, Stomach",9.91 µM
same,IC50,"SNU-16, SNU-16, Stomach",9.96 µM
same,EC50,"SNU-423, SNU-423, Liver",5.29 µM
same,GI50,"SNU-423, SNU-423, Liver",5.26 µM
same,IC50,"SNU-423, SNU-423, Liver",5.31 µM
same,EC50,"SR, Lymphoma",10.7 µM
same,GI50,"SR, Lymphoma",10.7 µM
same,IC50,"SR, Lymphoma",10.7 µM
same,EC50,"ST486, ST486, Lymphoma",3.87 µM
same,GI50,"ST486, ST486, Lymphoma",3.86 µM
same,IC50,"ST486, ST486, Lymphoma",3.87 µM
same,EC50,"SU-DHL10, SU-DHL-10, Lymphoma",9.92 µM
same,GI50,"SU-DHL10, SU-DHL-10, Lymphoma",9.9 µM
same,IC50,"SU-DHL10, SU-DHL-10, Lymphoma",9.92 µM
same,EC50,"SU-DHL-4, SU-DHL-4, Lymphoma",4.2 µM
same,GI50,"SU-DHL-4, SU-DHL-4, Lymphoma",4.2 µM
same,IC50,"SU-DHL-4, SU-DHL-4, Lymphoma",4.2 µM
same,EC50,"SU-DHL-5, SU-DHL-5, Lymphoma",4.28 µM
same,GI50,"SU-DHL-5, SU-DHL-5, Lymphoma",4.27 µM
same,IC50,"SU-DHL-5, SU-DHL-5, Lymphoma",4.28 µM
same,EC50,"SU-DHL-8, SU-DHL-8, Lymphoma",7.4 µM
same,GI50,"SU-DHL-8, SU-DHL-8, Lymphoma",7.4 µM
same,IC50,"SU-DHL-8, SU-DHL-8, Lymphoma",7.4 µM
same,EC50,"SU.86.86, SU.86.86, Pancreas",13.1 µM
same,GI50,"SU.86.86, SU.86.86, Pancreas",> 30 µM
same,IC50,"SU.86.86, SU.86.86, Pancreas",> 30 µM
same,EC50,"SUP-T1, SUP-T1, Lymphoma",12.1 µM
same,GI50,"SUP-T1, SUP-T1, Lymphoma",12 µM
same,IC50,"SUP-T1, SUP-T1, Lymphoma",12.1 µM
same,EC50,"SW48, SW48, Colon",8.73 µM
same,GI50,"SW48, SW48, Colon",8.65 µM
same,IC50,"SW48, SW48, Colon",8.73 µM
same,EC50,[9],12.3 µM
same,GI50,[9],12.2 µM
same,IC50,[9],12.3 µM
same,EC50,[10],> 30 µM
same,GI50,[10],> 30 µM
same,IC50,[10],> 30 µM
same,EC50,"SW837, SW837, Colon",> 30 µM
same,GI50,"SW837, SW837, Colon",> 30 µM
